Source: patent US10913712B2, “Tetracycline compounds” (Tetraphase Pharmaceuticals, Inc., priority 2012, dated 2021)
≈ marks a conversion by molar mass, not a printed value.

Tested on: Burkholderia cenocepacia BC240 (cystic fibrosis isolate, MDR)
Test: MIC assay
Format: cell-based
Conditions: Table 6; control compounds

| Structure (SMILES) | MIC BC 240 [µg/mL] |
| --- | --- |
| CN(C)[C@@H]1C(O)=C(C(N)=O)C(=O)[C@@]2(O)C(O)=C3C(=O)c4c(O)cccc4C[C@H]3C[C@@H]12 [Sancycline, sancycline] | 4 (≈ 9.65 µM) |
| CN(C)c1cc(NC(=O)CNC(C)(C)C)c(O)c2c1C[C@H]1C[C@H]3[C@H](N(C)C)C(O)=C(C(N)=O)C(=O)[C@@]3(O)C(O)=C1C2=O [Tigecycline, tigecycline] | 16 (≈ 27.3 µM) |
